SMILES strings stand for the structures.

For one test, the system named is U87 cells. As to the kind of experiment: MTT assay after radiation. Type of test: cell-based, human. Particulars: radiation plus PDZ1i versus radiation plus DMSO. Here is the method: FIGS. 8A-8D. PDZ1i produces similar effects to mda-9/syntenin knockdown post-radiation. FIG. 8A. ImPHFA and U87 cells were treated with 50 μM PDZ1i 2 h prior to radiation and analyzed for colony formation after 14 d. FIG. 8B. U87 cells were treated with 50 μM PDZ1i 2 h prior to radiation and analyzed via MTT assay after 24 h. FIG. 8C. U87 cells were pretreated with 50 μM PDZ1i 2 h prior to radiation and subsequently seeded in a trans-well Matrigel invasion assay and stained after 24 h. Invasion was quantified from 5 random fields in FIG. 8D. Error bars=±s.d. *p<0.05, **p<0.01.
Clonogenic radiosurvival experiments were carried out as described previously (4,7). Briefly, cells were diluted, seeded on 6-cm dishes, and after the cells attached, treated with DMSO or PDZ1i (12.5, 25, or 50 μM) in the medium for 2 h before irradiation. Cells were incubated overnight, and the medium changed to nondrug containing medium 16 h postirradiation. Cells were incubated further for 14 days, stained with 2% Giemsa solution, and colonies consisting of 50 or more were counted. Cell viability was assessed through MTT analysis as described previously (8).
Background: Formazan colour is commonly taken as a measure of viable cells.

Test [1] addresses MDA-9/IGF-1R interactions (Homo sapiens, UniProt O00560). Description: co-immunoprecipitation in DU145 and ARCaPM cells. Type of test: cell-based. Particulars: PDZ1i for 6 h. As to the method:
FIGS. 17A-17H. Effect of PDZ1i on invasion, MDA-9/IGF-R1 interaction and IGF-R1, STAT3 and SRC phosphorylation. FIG. 17A) Different cancer cells (25,000 cells/well) from various anatomic origins were pre-treated with either DMSO (vehicle) or PDZ1i (dose as indicated) and invasion ability was assayed using modified Boyden Chamber according to the manufacturer's instructions. Photomicrographs were taken at 10× magnification and quantification of the results of three independent experiments is provided in the graphs. The data presents mean±S.D. B) The designated cells were treated with DMSO or PDZ1i and invasion properties were determined using a modified Boyden Chamber assay (BD bioscience). RWPE-1 mda-9: mda-9 transiently overexpressing cell line. […] FIG. 17E) Cells were growth starved for 24 h and treated with either DMSO or PDZ1i (dose indicated in μM) for 6 h. Cells were treated with human recombinant IGFBP-2 (hIGFBP-2, 10 ng/ml) for 2 h, lysates were prepared and western blot analysis was conducted with specific antibodies. FIG. 17F) Cells were serum-starved for 24 h and treated with either DMSO or PDZ1i (20 μM) for 6 h. […] Cells were treated with human recombinant […] (hIGFBP-2, 1 ng/ml) for 2 h, cell lysates were prepared and analyzed by western blotting. […]
Next, the effect of PDZ1i on MDA-9 and IGF-1R interactions was determined. […]

A further test relates to ARCaPM-Luc cells. As to the kind of experiment: ARCaPM-Luc experimental metastasis model, PDZ1i treatment. Conditions: 30 mg/kg body weight I.P. Type of test: in vivo, athymic nude mice. Here is the method:
FIG. 19A-19F. PDZ1i suppresses prostate cancer metastasis and tumor progression. FIG. 19A) Survival data for athymic nude mice in which DMSO or PDZ1i pre-treated ARCaPM cells were injected. FIG. 19B) Survival data for athymic nude mice which were injected with (n=5, each group) ARCaPM-Luc (1×10^6 cells in 100 μl saline) through an intracardiac route. Mice received either vehicle or PDZ1i every alternative day (9 injections during the first three months) and maintained until they needed to be euthanized. FIG. 19C) Survival data for C57BL/6 mice injected through the intracardiac route with RM1-Luc. Vehicle or PDZ1i was administered through intraperitoneal injection every alternate day (total 3 injections during the first week). Survival curves were generated using 6 control vehicle-treated and 5 PDZ1i-treated. Kaplan—Meier survival curves were prepared using Graph Pad software. […] Graphical representation of the average prostate weights from control and treated groups. FIG. 19E and FIG. 19F) Photomicrographs representing the histological changes in prostate sections obtained from 6-month old Hi-Myc mice receiving either vehicle (FIG. 19E) or PDZ1i (FIG. 19F).
To evaluate potential therapeutic efficacy of PDZ1i four sets of in vivo experiments were conducted. […]

Chain of MDA-9/IGF-1R interactions (O00560 2-298 limits assumed): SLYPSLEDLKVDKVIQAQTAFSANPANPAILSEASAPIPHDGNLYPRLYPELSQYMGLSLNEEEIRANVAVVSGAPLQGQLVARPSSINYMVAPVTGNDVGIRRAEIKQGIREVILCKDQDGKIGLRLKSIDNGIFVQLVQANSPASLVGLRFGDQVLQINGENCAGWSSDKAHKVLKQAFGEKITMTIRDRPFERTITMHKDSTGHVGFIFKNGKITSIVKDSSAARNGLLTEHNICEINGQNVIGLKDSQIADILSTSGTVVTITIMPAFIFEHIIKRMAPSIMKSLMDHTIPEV

On to `Cc1cc(NC(=O)c2nc3[nH]c4c(c(=O)n3n2)CCC4)c(C)cc1NC(=O)CCc1nnc(-c2ccccc2)o1` [113B7, N-(2,5-dimethyl-4-(3-(5-phenyl-1,3,4-oxadiazol-2-yl)propanamido)phenyl)-8-oxo-5,6,7,8-tetrahydro-4H-cyclopenta[d][1,2,4]triazolo[1,5-a]pyrimidine-2-carboxamide], for which the proliferation following radiation entry with U87 cells is listed as “significantly decreased”. Moreover, in test [1], the MDA-9/IGF-1R interaction result is “selectively inhibits”. In addition, in the test with ARCaPM-Luc cells, the “metastatic lesions by BLI” value is on record as “significantly fewer lesions” and the survival entry is listed as “prolonged survival”.

For the origin of these results see US11008325B2, “Inhibitors of cancer invasion, attachment, and/or metastasis” (VIRGINIA COMMONWEALTH UNIVERSITY, priority 2016, dated 2021).
